Results as given in patent publication US20100279941A1, “CD36 MODULATION AND USES THEREOF” (priority 2009, published 2010).

Columns and labels:
[1] = Plasma cholesterol, triglyceride, NEFA and glycemia after myocardial ischaemia-reperfusion; type: in vivo, mice; settings: for Triglyceride / Glycemia Post-Reperfusion / Total Cholesterol / Glycemia Before Ischemia: 300 μg/kg/day for 2 weeks; for Triglyceride: mean ± S.E.M.; for Glycemia Post-Reperfusion / Total Cholesterol / Glycemia Before Ischemia: mean ± S.E.M. (n)
Description: Animals. CD36^−/− mice were generated by targeted homologous recombination and backcrossed six times to C57BI/6. Wild-type control littermates (CD36^+/+) were bred from the same cross and were therefore of identical genetic background [Febbraio et al., 2000]. Male mice, aged 23 (±1) weeks, were used for experiments. They were fed standard chow (#5075, Charles Rivers, Saint-Constant, Québec, Canada) and water ad libitum, and housed singly during treatment periods (2 or 10 weeks). Daily pharmacological treatments with 300 μg/kg of EP 80317 or CP1A(IV) or vehicle (0.9% NaCl) were done by subcutaneous (s.c.) injections.
Experimental model of IHD: Transient left coronary artery ligation in vivo. Mice were subjected to a transient LCAL surgery as described before, with minor modifications [Tarnayski et al., 2004]. Mice were injected i.p. with buprenorphine (0.05 mg/kg) and placed in an induction chamber with inhalation anesthesia comprised of 3% isoflurane mixed with 100% oxygen. Mice were intubated with a blunt ended 20-gauge catheter into the trachea via the mouth and mechanically ventilated at a tidal volume of 7 ml/kg at 130 respirations/min with a MiniVent™ mouse ventilator (model 845, Harvard Apparatus, Saint-Laurent, QC, Canada). Anesthesia was maintained with 1.5-2% isoflurane and the animals were kept warm using electrical heating pads during the surgical procedure. The chest was opened by a horizontal incision through the skin and muscle layers at the third intercostal space exposing the left side of the heart. […] Visual blanching distal to the coronary occlusion confirmed myocardial ischaemia. Lidocaine (6 mg/kg) was administered i.p. just following occlusion and prior to reperfusion. After 30 minutes, the PE10 tubing was removed allowing reperfusion. The lungs were reinflated and the chest wound closed layer by layer before extubation. […] Hearts were immediately frozen at −80° C. unless otherwise stated. […]
Plasma and tissue assays. Plasma insulin, triglyceride (TG) and NEFA levels were measured as previously described [Menard et al., 2009]. In vitro lipolysis was prevented by collecting blood in the presence of 40 mM Orlistat (Calbiochem, San Diego, Calif., USA) and centrifuging rapidly. Plasma and tissue lipids were extracted according to the method described by Folch et al. [Folch et al., 1957]. The non-metabolized fraction of [^18F]-FTHA in plasma was determined using thin-layer chromatography from blood samples taken 2, 3, 5, 10, and 30 min after FTHA injection, and the metabolite corrected plasma curve was calculated by linear interpolation and used to correct the plasma input function (modified from [Ci et al., 2006]). Myocardial mitochondria were extracted with measurement of GDH activity to correct for extraction efficiency [Menard et al., 2009].

C57BL/6 mice = experiment: Blood lactate after transient ischemia; type: in vivo; settings: 6-hour reperfusion; 2 weeks 289 nmol/kg; P<0.05 compared to vehicle
Description: C57BU6 mice were bred in house. Male mice, aged 23 (±1) weeks, were used for experiments. They were fed standard chow (#5075, Charles Rivers, Saint-Constant, Québec, Canada) and water ad libitum, and housed singly during treatment periods (2 weeks). Daily pharmacological treatments with 300 μg/kg (289 nmol/kg) of EP 80317 or 289 nmol/kg of CP-3(IV), 289 nmol/kg of CP-AP-4 or vehicle (0.9% NaCl) were done by subcutaneous (s.c.) injections.
Experimental model of IHD: Transient left coronary artery ligation in vivo. Mice were subjected to a transient LCAL surgery as described before, with minor modifications [Tarnayski et al., 2004]. Mice were injected i.p. with buprenorphine (0.05 mg/kg) and placed in an induction chamber with inhalation anesthesia comprised of 3% isoflurane mixed with 100% oxygen. Mice were intubated with a blunt ended 20-gauge catheter into the trachea via the mouth and mechanically ventilated at a tidal volume of 7 ml/kg at 130 respirations/min with a MiniVent™ mouse ventilator (model 845, Harvard Apparatus, Saint-Laurent, QC, Canada). Anesthesia was maintained with 1.5-2% isoflurane and the animals were kept warm using electrical heating pads during the surgical procedure. The chest was opened by a horizontal incision through the skin and muscle layers at the third intercostal space exposing the left side of the heart. […] Visual blanching distal to the coronary occlusion confirmed myocardial ischaemia. Lidocaine (6 mg/kg) was administered i.p. just following occlusion and prior to reperfusion. After 30 minutes, the PE10 tubing was removed allowing reperfusion. The lungs were reinflated and the chest wound closed layer by layer before extubation. At 6 hours following reperfusion, mice were anesthetized (isoflurane), a blood sample withdrawn, and the heart arrested in diastole by an intravenous injection of 1 M KCl (0.5 mL). Hearts were immediately frozen at −80° C. unless otherwise stated.
Blood lactate. Blood lactate was determined using the Lactate Pro Analyser (FaCT Canada Consulting Ltd, Quesnel, BC, Canada), according to the manufacturer's instructions.

[2] = 6 h post-reperfusion, CD36^+/+ mice
[3] = 6 h post-reperfusion, CD36^−/− mice
[4] = 48 h post-reperfusion, CD36^+/+ mice
[5] = 48 h post-reperfusion, CD36^−/− mice

HAIC-2MeDTrp-DLys-Trp-DPhe-Lys-NH2 [EP 80317]
effect on plasma TG ([1]; 6 or 48 hours following reperfusion, both CD36^+/+ and CD36^−/− mice, in words): did not modulate
attenuation of plasma NEFA elevation ([1]; 6 hours after reperfusion, CD36-dependent (CD36^+/+ mice), p<0.05 vs vehicle): 29%
Triglyceride [1, 2]: 0.35 ± 0.04 mmol/L
Glycemia Post-Reperfusion [1, 2]: 13.6 ± 1.2 (20) mmol/L
Total Cholesterol [1, 2]: 1.4 ± 0.3 (4) mmol/L
Triglyceride [1, 3]: 0.58 ± 0.16 mmol/L
Glycemia Post-Reperfusion [1, 3]: 8.8 ± 0.6 (17) mmol/L
Total Cholesterol [1, 3]: 1.9 ± 0.1 (5) mmol/L
effect on plasma NEFA levels ([1]; 48 hours after reperfusion, in words): no effect
Triglyceride [1, 4]: 0.44 ± 0.03 mmol/L
Total Cholesterol [1, 4]: 1.5 ± 0.03 (6) mmol/L
Triglyceride [1, 5]: 0.55 ± 0.06 mmol/L
Total Cholesterol [1, 5]: 2.5 ± 0.2 (4) mmol/L
Glycemia Before Ischemia ([1]; CD36^+/+ mice): 10.6 ± 0.4 (15) mmol/L
Glycemia Before Ischemia ([1]; CD36^−/− mice): 9.3 ± 0.5 (8) mmol/L
reduction of lactate concentration in blood (C57BL/6 mice): 34%
